The molecules below were run against recombinant human 11β-HSD type 1 enzyme (Homo sapiens, UniProt P28845) (assay: 11β-HSD type 1 enzyme assay (NADPH production by fluorescence)). Details: three hour incubation at room temperature.
Assay type: biochemical
Protocol: 11β-HSD Type 1 Enzyme Assay
Human 11β-HSD type 1 activity is measured by assaying NADPH production by fluorescence assay. Solid compounds are dissolved in DMSO to a concentration of 10 mM. Twenty microliters of each are then transferred to a column of a 96-well polypropylene Nunc plate where they are further diluted 50-fold followed by subsequent two-fold titration, ten times across the plate with additional DMSO using a Tecan Genesis 200 automated system. Plates are then transferred to a Tecan Freedom 200 system with an attached Tecan Temo 96-well head and an Ultra 384 plate reader. Reagents are supplied in 96-well polypropylene Nunc plates and are dispensed individually into black 96-well Molecular Devices High Efficiency assay plates (40 μL/well capacity) in the following fashion: 9 μL/well of substrate (2.22 mM NADP, 55.5 μM Cortisol, 10 mM Tris, 0.25% Prionex, 0.1% Triton X100), 3 μL/well of water to compound wells or 3 μL to control and standard wells, 6 μL/well recombinant human 11β-HSD type 1 enzyme, 2 μL/well of compound dilutions. For ultimate calculation of percent inhibition, a series of wells are added that represent assay minimum and maximum: one set containing substrate with 667 μM carbenoxolone (background), and another set containing substrate and enzyme without compound (maximum signal). Final DMSO concentration is 0.5% for all compounds, controls and standards. Plates are then placed on a shaker by the robotic arm of the Tecan for 15 seconds before being covered and stacked for a three hour incubation period at room temperature. Upon completion of this incubation, the Tecan robotic arm removes each plate individually from the stacker and places them in position for addition of 5 μL/well of a 250 μM carbenoxolone solution to stop the enzymatic reaction. Plates are then shaken once more for 15 seconds then placed into an Ultra 384 microplate reader (355EX/460EM) for detection of NADPH fluorescence.

Chain of recombinant human 11β-HSD type 1 enzyme (P28845 whole entry): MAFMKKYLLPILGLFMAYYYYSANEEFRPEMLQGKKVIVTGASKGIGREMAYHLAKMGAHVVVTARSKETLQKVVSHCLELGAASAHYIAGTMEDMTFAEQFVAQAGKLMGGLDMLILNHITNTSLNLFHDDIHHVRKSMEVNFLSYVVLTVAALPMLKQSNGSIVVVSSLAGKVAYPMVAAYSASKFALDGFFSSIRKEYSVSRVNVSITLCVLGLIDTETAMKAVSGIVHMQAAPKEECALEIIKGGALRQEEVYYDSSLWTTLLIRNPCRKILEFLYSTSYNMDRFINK

Going from O=C1C(Cc2cc3ccccc3s2)CCN1C1CCCCC1 (stereo not shown) to O=C1C(Cc2cc3ccccc3o2)CCN1C1CCCCC1 (stereo not shown), the IC50 rises from 190 nM to 682 nM (3.6-fold). The first is the more potent here.

First: O=C1C(Cc2sc3cc4c(cc3c2Cl)OCO4)CCN1C1CCCCC1 (stereo not shown)
Second: COc1ccc2c(Cl)c(CC3CCN(C4CCCCC4)C3=O)sc2c1 (stereo not shown)
The IC50 of the first is 3.1-fold lower: 162 nM for the first, 508 nM for the second.

Going from O=C1C(Cc2cc3cc(-c4ccnc(F)c4)ccc3s2)CCN1C1CCCCC1 (stereo not shown) to O=C(O)c1ccc(-c2ccc3sc(CC4CCN(C5CCCCC5)C4=O)cc3c2)cc1 (stereo not shown), the IC50 rises from 257 nM to 427 nM (1.7-fold). The first is the more potent here.

For O=C1C(Cc2sc3ccccc3c2Cl)CCCN1C1CCC(O)CC1 (stereo not shown), the IC50 was 276 nM.
